Measured values from US12421253B2 (Mirati Therapeutics, Inc., priority 2020, dated 2025).

Key:
[1] = target: KRas^G13D (Homo sapiens, UniProt P01116, G13D); assay: biochemical
[2] = target: T1, KRas^G12D (Homo sapiens, UniProt P01116, G12D); assay: KRas binding assay (TR-FRET displacement of Cy5 labelled tracer)
T1 construct: […]; biotin (biotinylated); purchased Accelegan Inc

[3] = target: T2, KRas^G12R (Homo sapiens, UniProt P01116, G12R); assay: as above
T2 construct: […]; biotin (biotinylated); purchased Accelegan Inc
T2 sequence (P01116 1-169 isoform P01116-2 G12R): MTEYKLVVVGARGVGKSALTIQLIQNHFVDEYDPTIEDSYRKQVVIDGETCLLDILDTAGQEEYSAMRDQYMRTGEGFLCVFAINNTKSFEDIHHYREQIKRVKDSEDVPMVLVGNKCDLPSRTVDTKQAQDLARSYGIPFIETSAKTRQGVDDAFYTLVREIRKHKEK

[4] = target: T3, KRas^G12S (Homo sapiens, UniProt P01116, G12S); assay: as above
T3 construct: […]; biotin (biotinylated); purchased Accelegan Inc
T3 sequence (P01116 1-169 isoform P01116-2 G12S): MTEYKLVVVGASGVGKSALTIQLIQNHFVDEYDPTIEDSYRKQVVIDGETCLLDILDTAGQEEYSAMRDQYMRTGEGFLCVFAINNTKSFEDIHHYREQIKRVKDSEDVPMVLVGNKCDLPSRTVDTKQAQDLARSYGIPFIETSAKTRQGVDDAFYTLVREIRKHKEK

[5] = target: KRas^Q61H (Homo sapiens, UniProt P01116, Q61H); assay: biochemical
Chain of KRas^Q61H (P01116 1-169 isoform P01116-2 Q61H): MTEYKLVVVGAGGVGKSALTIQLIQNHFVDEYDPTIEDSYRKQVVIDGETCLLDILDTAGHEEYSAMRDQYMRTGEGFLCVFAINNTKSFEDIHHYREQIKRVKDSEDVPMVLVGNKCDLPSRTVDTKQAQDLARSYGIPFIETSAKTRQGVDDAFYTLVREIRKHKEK

[6] = target: KRas^G12C (Homo sapiens, UniProt P01116, G12C); assay: biochemical
Chain of KRas^G12C (P01116 1-169 isoform P01116-2 G12C): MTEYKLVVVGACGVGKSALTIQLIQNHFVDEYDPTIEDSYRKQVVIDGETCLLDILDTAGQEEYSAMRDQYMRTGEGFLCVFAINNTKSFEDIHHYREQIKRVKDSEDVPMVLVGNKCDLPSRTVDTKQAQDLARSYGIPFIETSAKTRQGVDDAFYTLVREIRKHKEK

[7] = target: T4, KRas^G12V (Homo sapiens, UniProt P01116, G12V); assay: KRas binding assay (TR-FRET displacement of Cy5 labelled tracer)
T4 construct: […]; biotin (biotinylated); purchased Accelegan Inc
T4 sequence (P01116 1-169 isoform P01116-2 G12V): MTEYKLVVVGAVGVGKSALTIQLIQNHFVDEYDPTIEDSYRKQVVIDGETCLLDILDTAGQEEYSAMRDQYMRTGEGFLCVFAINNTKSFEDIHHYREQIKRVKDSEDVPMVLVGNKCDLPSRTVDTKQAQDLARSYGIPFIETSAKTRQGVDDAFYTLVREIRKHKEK

[8] = target: T5, KRas^G12A (Homo sapiens, UniProt P01116, G12A); assay: as above
T5 construct: […]; biotin (biotinylated); purchased Accelegan Inc
T5 sequence (P01116 1-169 isoform P01116-2 G12A): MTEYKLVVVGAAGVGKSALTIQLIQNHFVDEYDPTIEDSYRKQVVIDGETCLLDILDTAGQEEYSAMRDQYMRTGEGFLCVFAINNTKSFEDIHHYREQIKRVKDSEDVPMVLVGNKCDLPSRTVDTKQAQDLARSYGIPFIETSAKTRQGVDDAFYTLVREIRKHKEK

[9] = target: T6, KRas^WT (Homo sapiens, UniProt P01116); assay: as above
T6 construct: […]; biotin (biotinylated); purchased Accelegan Inc
T6 sequence (P01116 1-169 isoform P01116-2): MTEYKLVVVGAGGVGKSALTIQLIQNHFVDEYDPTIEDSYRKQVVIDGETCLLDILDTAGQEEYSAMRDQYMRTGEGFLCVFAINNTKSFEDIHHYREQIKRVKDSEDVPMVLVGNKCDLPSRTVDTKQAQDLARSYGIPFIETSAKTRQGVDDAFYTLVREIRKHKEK

T1 sequence (P01116 1-169 isoform P01116-2 G12D): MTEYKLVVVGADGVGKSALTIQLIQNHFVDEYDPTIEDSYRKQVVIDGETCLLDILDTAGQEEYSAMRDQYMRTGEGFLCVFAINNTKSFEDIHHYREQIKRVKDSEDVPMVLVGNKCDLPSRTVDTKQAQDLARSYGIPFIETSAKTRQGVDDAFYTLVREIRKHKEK
Chain of KRas^G13D (P01116 1-169 isoform P01116-2 G13D): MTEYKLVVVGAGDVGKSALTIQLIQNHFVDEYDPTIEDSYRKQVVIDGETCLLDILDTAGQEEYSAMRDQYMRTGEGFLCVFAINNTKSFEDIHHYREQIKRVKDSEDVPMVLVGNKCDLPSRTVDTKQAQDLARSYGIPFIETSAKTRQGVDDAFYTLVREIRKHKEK

SMILES	IC50 [1]	IC50 [2]	IC50 [3]	IC50 [4]	IC50 [5]	IC50 [6]	IC50 [7]	IC50 [8]	IC50 [9]
CCc1cccc2cccc(N3CCc4c(nc(OCC56CCCN5CCC6)nc4N4CCCC(c5noc(C(F)(F)F)n5)C4)C3)c12 (stereo not shown) [Example 163, 3-(1-(7-(8-ethylnaphthalen-1-yl)-2-((tetrahydro-1H-pyrrolizin-7a(5H)-yl)methoxy)-5,6,7,8-tetrahydropyrido[3,4-d]pyrimidin-4-yl)piperidin-3-yl)-5-(trifluoromethyl)-1,2,4-oxadiazole]		7.11 µM	3.46 µM				5.17 µM		
CCc1cccc2cccc(N3CCc4c(nc(OCC56CCCN5CCC6)nc4Nc4cnn(CC(N)=O)c4)C3)c12 [Example 139, 2-(4-((7-(8-ethylnaphthalen-1-yl)-2-((tetrahydro-1H-pyrrolizin-7a(5H)-yl)methoxy)-5,6,7,8-tetrahydropyrido[3,4-d]pyrimidin-4-yl)amino)-1H-pyrazol-1-yl)acetamide]	5.44 µM	12.4 µM	1.41 µM	2.83 µM	4.58 µM	1.49 µM	1.17 µM	2.54 µM	3.48 µM
O=C1NC(=O)C2CN(c3nc(OCC45CCCN4CCC5)nc4c3CCN(c3cccc5cccc(F)c35)C4)CC12 (stereo not shown) [Example 81, 5-(7-(8-fluoronaphthalen-1-yl)-2-((hexahydro-1H-pyrrolizin-7a-yl)methoxy)-5,6,7,8-tetrahydropyrido[3,4-d]pyrimidin-4-yl)tetrahydropyrrolo[3,4-c]pyrrole-1,3(2H,3aH)-dione]	3.72 µM	5.4 µM	4.02 µM	1.16 µM	5.33 µM	3.56 µM	3.4 µM	4.05 µM	3.61 µM
CCc1cccc2cccc(N3CCc4c(nc(OCC56CCCN5CCC6)nc4NCC4(C)CSC4)C3)c12 [Example 171, 7-(8-ethylnaphthalen-1-yl)-N-((3-methylthietan-3-yl)methyl)-2-((tetrahydro-1H-pyrrolizin-7a(5H)-yl)methoxy)-5,6,7,8-tetrahydropyrido[3,4-d]pyrimidin-4-amine]		16.6 µM	8.28 µM				8.8 µM		
CCc1cccc2cccc(N3CCc4c(nc(OCC56CCCN5CCC6)nc4N4CCN(c5ccncn5)CC4)C3)c12 [Example 58, 7-(8-ethylnaphthalen-1-yl)-2-((hexahydro-1H-pyrrolizin-7a-yl)methoxy)-4-(4-(pyrimidin-4-yl)piperazin-1-yl)-5,6,7,8-tetrahydropyrido[3,4-d]pyrimidine]		20 µM	7.91 µM			6.57 µM	2.86 µM		
CCc1c(F)ccc2cccc(N3CCc4c(nc(OCC56CCCN5CCC6)nc4N4CCC[C@@](C)(O)C4)C3)c12 [Example 3, (R)-1-(7-(8-ethyl-7-fluoronaphthalen-1-yl)-2-((hexahydro-1H-pyrrolizin-7a-yl)methoxy)-5,6,7,8-tetrahydropyrido[3,4-d]pyrimidin-4-yl)-3-methylpiperidin-3-ol]		0.016 µM	0.025 µM				0.017 µM		
Oc1cc(N2CCc3c(nc(OC[C@@]45CCCN4C[C@H](F)C5)nc3N3CC4CC(O)CC3C4)C2)c2c(Br)c(F)ccc2c1 (single isomer, unassigned) [Example 214]		0.558 µM	0.054 µM				0.118 µM		
CCc1cccc2cccc(N3CCc4c(nc(OCC56CCCN5CCC6)nc4Nc4cccnc4)C3)c12 [Example 5, 7-(8-ethylnaphthalen-1-yl)-2-((hexahydro-1H-pyrrolizin-7a-yl)methoxy)-N-(pyridin-3-yl)-5,6,7,8-tetrahydropyrido[3,4-d]pyrimidin-4-amine]		19.1 µM	8.07 µM				7.65 µM		
CCc1cccc2cccc(N3CCc4c(nc(OCC56CCCN5CCC6)nc4NCCc4ccno4)C3)c12 [Example 169, 7-(8-ethylnaphthalen-1-yl)-N-(2-(isoxazol-5-yl)ethyl)-2-((tetrahydro-1H-pyrrolizin-7a(5H)-yl)methoxy)-5,6,7,8-tetrahydropyrido[3,4-d]pyrimidin-4-amine]		8.48 µM	5.12 µM				7.17 µM		
Oc1cc(N2CCc3c(nc(OC[C@@]45CCCN4C[C@H](F)C5)nc3N3CC4CC(O)CC3C4)C2)c2c(Cl)c(F)ccc2c1 (single isomer, unassigned) [Example 77]		0.74 µM	0.165 µM				0.188 µM		

Other lines, results leading:

IC50 [1]	IC50 [2]	IC50 [3]	IC50 [4]	IC50 [5]	IC50 [6]	IC50 [7]	IC50 [8]	IC50 [9]	SMILES
0.552 µM	1.12 µM	0.291 µM	0.696 µM	0.606 µM	0.475 µM	0.958 µM	0.628 µM	0.712 µM	CCc1cccc2cccc(N3CCc4c(nc(OCC56CCCN5CCC6)nc4N4CCCC(n5cccn5)C4)C3)c12 (stereo not shown) [Example 82, 4-(3-(1H-pyrazol-1-yl)piperidin-1-yl)-7-(8-ethylnaphthalen-1-yl)-2-((tetrahydro-1H-pyrrolizin-7a(5H)-yl)methoxy)-5,6,7,8-tetrahydropyrido[3,4-d]pyrimidine]
	0.552 µM	0.198 µM			0.271 µM	0.271 µM			CCc1cccc2cccc(N3CCc4c(nc(OCC56CCCN5CCC6)nc4N4CCCC(O)C4)C3)c12 (stereo not shown) [Example 43, 1-(7-(8-ethylnaphthalen-1-yl)-2-((hexahydro-1H-pyrrolizin-7a-yl)methoxy)-5,6,7,8-tetrahydropyrido[3,4-d]pyrimidin-4-yl)piperidin-3-ol]
1.4 µM	3.04 µM	0.46 µM	1.35 µM	1.21 µM	0.928 µM	1.81 µM	1.11 µM	1.15 µM	CCc1cccc2cccc(N3CCc4c(nc(OCC56CCCN5CCC6)nc4N4CCCC(c5ccn[nH]5)C4)C3)c12 (stereo not shown) [Example 115, 4-(3-(1H-pyrazol-5-yl)piperidin-1-yl)-7-(8-ethylnaphthalen-1-yl)-2-((tetrahydro-1H-pyrrolizin-7a(5H)-yl)methoxy)-5,6,7,8-tetrahydropyrido[3,4-d]pyrimidine]
1.15 µM	1.23 µM	0.723 µM	0.584 µM	1.42 µM	0.662 µM	0.348 µM	1.27 µM	2.22 µM	CCc1cccc2cccc(N3CCc4c(nc(OCC56CCCN5CCC6)nc4N4CC5CNC(=O)C5C4)C3)c12 (stereo not shown) [Example 52, 5-(7-(8-ethylnaphthalen-1-yl)-2-((hexahydro-1H-pyrrolizin-7a-yl)methoxy)-5,6,7,8-tetrahydropyrido[3,4-d]pyrimidin-4-yl)hexahydropyrrolo[3,4-c]pyrrol-1(2H)-one]
	0.479 µM	0.168 µM				0.221 µM		0.214 µM	CCc1cccc2cccc(N3CCc4c(nc(OCC56CCCN5CCC6)nc4N4CCOCC(CO)C4)C3)c12 (stereo not shown) [Example 37, (4-(7-(8-ethylnaphthalen-1-yl)-2-((hexahydro-1H-pyrrolizin-7a-yl)methoxy)-5,6,7,8-tetrahydropyrido[3,4-d]pyrimidin-4-yl)-1,4-oxazepan-6-yl)methanol]
	≤ 0.002 µM	0.485 µM				0.204 µM		0.445 µM	CCc1cccc2cccc(N3CCc4c(nc(OCC56CCCN5CCC6)nc4N4CCCCC(CO)C4)C3)c12 (stereo not shown) [Example 38, (1-(7-(8-ethylnaphthalen-1-yl)-2-((hexahydro-1H-pyrrolizin-7a-yl)methoxy)-5,6,7,8-tetrahydropyrido[3,4-d]pyrimidin-4-yl)azepan-3-yl)methanol]
	0.224 µM	0.153 µM				0.153 µM			CCc1cccc2cccc(N3CCc4c(nc(OCC56CCCN5CCC6)nc4N4CCC(O)CC(CO)C4)C3)c12 (single isomer, unassigned) [Example 172, 1-(7-(8-ethylnaphthalen-1-yl)-2-((hexahydro-1H-pyrrolizin-7a-yl)methoxy)-5,6,7,8-tetrahydropyrido[3,4-d]pyrimidin-4-yl)-6-(hydroxymethyl)azepan-4-ol]
	1.16 µM	0.307 µM				0.535 µM			CCc1cccc2cccc(N3CCc4c(nc(OCC56CCCN5CCC6)nc4N4CCC(O)CC(CO)C4)C3)c12 (single isomer, unassigned) [Example 173, 1-(7-(8-ethylnaphthalen-1-yl)-2-((hexahydro-1H-pyrrolizin-7a-yl)methoxy)-5,6,7,8-tetrahydropyrido[3,4-d]pyrimidin-4-yl)-6-(hydroxymethyl)azepan-4-ol]
	0.287 µM	0.024 µM				0.038 µM			CCc1cccc2cccc(N3CCc4c(nc(OCC56CCCN5CCC6)nc4N4CCC(O)CC(CO)C4)C3)c12 (single isomer, unassigned) [Example 174, 1-(7-(8-ethylnaphthalen-1-yl)-2-((hexahydro-1H-pyrrolizin-7a-yl)methoxy)-5,6,7,8-tetrahydropyrido[3,4-d]pyrimidin-4-yl)-6-(hydroxymethyl)azepan-4-ol]
	0.097 µM	0.127 µM				0.09 µM			CCc1cccc2cccc(N3CCc4c(nc(OCC56CCCN5CCC6)nc4N4CCCC(C)(O)C4)C3)c12 (stereo not shown) [Example 4, 1-(7-(8-ethylnaphthalen-1-yl)-2-((hexahydro-1H-pyrrolizin-7a-yl)methoxy)-5,6,7,8-tetrahydropyrido[3,4-d]pyrimidin-4-yl)-3-methylpiperidin-3-ol]
